Like-named read-outs stand apart in the source and are kept apart here.
Columns and labels:
Format in all cases: cell-based
[1] = system: HIV-1NL4-3 Wild Type; test: Luminescence reduction assay, MT4 cells infected with HIV-1NL4-3 luciferase reporter virus, wild type; conditions: 2% FCS
Description: (§1) For this assay, HIV-1NL4-3 reporter viruses are used, which carry the luciferase164 gene (lu164) instead of the nef gene. The viruses are generated by transfection of 293T cells with the corresponding proviral pNL4-3 plasmid (Lipofectamine Reagent, Invitrogen, Karlsruhe, Germany). Starting from the proviral plasmid-DNA, viruses with defined resistance mutations in the reverse transcriptase gene are produced with the “QuikChange II XL Site-Directed Mutagenesis Kit” (Stratagene, Cedar Creek, Tex., USA). Among other things, the following mutations are generated: A98G, A98G-K103N-V108I, A98S, F227C, F227L, G190A, G190S, K101E, K101Q-K103N, K103N, K103N-F227L, K103N-G190A, K103N-G190S, K103N-M230L, K103N-N348I, K103N-P225H, K103N-V108I, K103N-V108I-P225H, K103N-V179F-Y181C, K103N-Y181C, K103N-Y181C-G190A, L100I, L100I-K103N, L100I-K103N-V179I-Y181C, L100I-K103N-Y181C, L234I, N348I, P225H, P236L, V106A, V106A-E138K, V106A-F227C, V106A-F227L, V106I, V106I-Y188L, V106M, V108I, V179F-Y181C, V179I, V179I-Y181C, Y181C, Y181C-G190A, Y181C-M230L, Y181I, Y188L. MT4 cells infected with these reporter viruses (NIH AIDS Research and Reference Reagent Program) secrete luciferase into the medium, which makes possible the luminometric quantification of the virus replication.
(§2) For the batch of a 96-well MTP, 3 million MT4 cells are pelletized, suspended in 1 ml of RPMI 1640 medium without phenol red (Invitrogen, Karlsruhe, Germany)/10% FCS/2 mmol of L-glutamine/1% Pen/Strep (Invitrogen, Karlsruhe, Germany), and incubated together with a suitable amount of the corresponding HIV-1NL4-3 reporter virus for 2 hours at 37° C. (pellet infection). Non-adsorbed viruses are then washed out with PBS, the infected cells are pelletized again, and suspended in 8 ml of RPM 11640 medium without phenol red/2% or 10% FCS/2 mmol of L-glutamine/1% Pen/Strep. Therefrom, 80 μl per well is pipetted into a white 96-well MTP in 20 μl of test substance in a suitable dilution. In order to avoid boundary effects, the edge wells of the MTP are not used for substance dilutions. The second vertical row of the MTP contains only infected cells (virus control), and the eleventh vertical row contains only non-infected cells (cell control) in each case in RPMI 1640 medium without phenol red/2% or 10% FCS/2 mmol of L-glutamine/1% Pen/Strep. The other wells of the MTP contain the compounds according to the invention in different concentrations starting from the third vertical row, from which dilution of the test substances is carried out 3^7 times in three steps up to the tenth vertical row. The test substances are dissolved in DMSO, whereby the DMSO final concentration in the test batch is ultimately 1%. The test batches are incubated for 5 days at 37° C./5% CO2, and are luminometrically evaluated after the addition of 15 μl of Lu164-buffer (65 mmol of NaCl, 300 mmol of MES, pH 5.8, 5 mmol of glutathione and 1:200 coelenterazine (5 mg/ml in 30 μM of glutathione/DMSO) (P.J.K. GmbH, Kleinblittersdorf, Germany)). In the virus control, the resulting values are in the range of 1 million RLUs (relative light units), and in the cell control, the resulting values are 300 to 400 RLUs. The EC50 values of the test substances are determined as the concentration of the treated infected cells, in which the virus replication measured in RLUs is 50% of the untreated infected cells.

[2] = system: HIV-1LAI Wild Type; test: AlamarBlue viability assay, HIV-1LAI-infected MT4 cells; conditions: 10% FCS
Procedure: For the batch of a 96-well MTP, 3 million PBLs are pelletized, suspended in 1 ml of RPMI 1640 medium/10% FCS/2 mmol of L-glutamine/1% Pen/Strep, and incubated together with a suitable amount of HIV-1LA1 (NIH AIDS Research & Reference Reagent Program, Germantown, USA) for 2 hours at 37° C. (pellet infection). Non-adsorbed viruses are then washed out with PBS, the infected cells are pelletized again, and suspended in 18 ml of RPMI 1640 medium/10% FCS/2 mmol of L-glutamine/1% Pen/Strep/interleukin-2 (40 U/ml). Therefrom, 180 μl per well is pipetted into a white 96-well MTP in 20 μl of test substance in a suitable dilution. As an alternative, after preparation of the substance dilutions, the HIV is added by pipetting in the MTP together with the cells and is no longer washed out (supernatant infection). In order to avoid boundary effects, the edge wells of the MTP are not used for substance dilutions. The second vertical row of the MTP contains only infected cells (virus control), and the eleventh vertical row contains only non-infected cells (cell control) in each case in RPMI 1640 medium/10% FCS/2 mmol of L-glutamine/1% Pen/Strep/interleukin-2 (40 U/ml). The other wells of the MTP contain the compounds according to the invention in different concentrations starting from the third vertical row, from which dilution of the test substances is carried out 3^7 times in three steps up to the tenth vertical row. The test substances are dissolved in DMSO, whereby the DMSO final concentration in the test batch is ultimately 1%. The test batches are incubated at 37° C./5% CO2. After 5 and 7 days, in each case 50 μl of cell-free supernatant is drawn off from each well in order to determine the amount of p24 contained by means of p24 ELISA (HIV-1 p24^CA Antigen Capture Assay Kit, NCI-Frederick Cancer Research and Development Center, Frederick, USA). From the resulting values of the photometric analysis (450/620 nm), the EC50 values of the test substances are determined as the concentration of the treated infected cells, in which the amount of p24 is 50% of the untreated infected cells.
As an alternative, MT4 cells are used for testing test substances instead of PBLs. HIV-1LA1-infected MT4 cells (MOI 0.01, supernatant infection) are incubated according to the above-described pattern in RPMI 1640 medium with 2% or 10% FCS/2 mmol of L-glutamine/1% Pen/Strep in the presence of test substances for 5 days at 37° C./5% CO2 (20 μl of substance dilution and 80 μl of cells/virus per well). Then, 10 μl of AlamarBlue (Invitrogen, Karlsruhe, Germany) is added to each well, and MTPs are incubated for 3 hours at 37° C., before the fluorimetric analysis is done (544/590 nm). The resulting values are approximately 30,000 in the case of untreated, non-infected cells, and approximately 6,000 in the case of untreated infected cells. In the low concentration range, the EC50 values of the test substances are determined as the concentration of the treated infected cells, in which the fluorescence is 50% of the untreated non-infected cells (in each case relative to the values of the untreated infected cells). In addition, in the high concentration range, the CC50 values of the test substances are determined as the concentration of the treated infected cells, in which the fluorescence is 50% of the untreated, non-infected cells (in each case relative to the values of the untreated infected cells).

[3] = system: HIV-1NL4-3 K103N-Y181C; test: Luminescence reduction assay, MT4 cells infected with HIV-1NL4-3 luciferase reporter virus, RT mutant K103N-Y181C
Description: as §1, §2

[4] = Human immunodeficiency virus 1, MT4, MT4 cells
[5] = Human immunodeficiency virus 1, MT4, read-out: EC50 (μM) MT4 Cells HIV-1NL4-3 K103N-Y181C 2% FCS, MT4 cells, HIV-1NL4-3 K103N-Y181C, 2% FCS
[6] = read-out: EC50 (μM) MT4 Cells HIV-1NL4-3 K103N-Y181C 2% FCS, MT4 cells, HIV-1NL4-3 K103N-Y181C, 2% FCS

Compound: O=C1CN(C(=O)c2cc(-c3cc(F)cc(Cl)c3)n(-c3cncc(Cl)c3)n2)CCN1 [Example 10]
- EC50 [1, 4]: 0.149 µM
- EC50 [2, 4]: 1.71 µM
- EC50 [3, 5]: > 3.3 µM

Compound: O=C(c1cc(-c2cc(F)cc(Cl)c2)n(-c2cccnc2)n1)N1CC[S+]([O-])C1 (racemic) [Example 6, [5-(3-Chloro-5-fluorophenyl)-1-(pyridin-3-yl)-1H-pyrazol-3-yl](1-oxido-1,3-thiazolidin-3-yl)methanone]
- EC50 ([1]; MT4 cells): 0.054 µM
- EC50 ([2]; MT4 cells): 0.201 µM
- EC50 [3, 6]: 1.36 µM

Compound: O=C1CN(C(=O)c2cc(-c3cc(Br)cc(OC(F)(F)F)c3)n(-c3ccc(F)nc3)n2)CCN1 [Example 40, 4-({5-[3-Bromo-5-(trifluoromethoxy)phenyl]-1-(6-fluoropyridin-3-yl)-1H-pyrazol-3-yl}carbonyl)piperazin-2-one]
- EC50 [1, 4]: 0.013 µM
- EC50 [2, 4]: 0.213 µM
- EC50 [3, 5]: 0.044 µM

Compound: O=C(c1cc(-c2cc(F)cc(OC(F)(F)F)c2)n(-c2cccnc2)n1)N1CC[S+]([O-])C1 (racemic) [Example 60, {5-[3-Fluoro-5-(trifluoromethoxy)phenyl]-1-(pyridin-3-yl)-1H-pyrazol-3-yl}(1-oxido-1,3-thiazolidin-3-yl)methanone]
- EC50 ([1]; MT4 cells): 0.077 µM
- EC50 ([2]; MT4 cells): 0.997 µM
- EC50 [3, 6]: 0.621 µM

Compound: O=C(c1cc(-c2cc(F)cc(OCC(F)(F)F)c2)n(-c2cccnc2)n1)N1CCSC1 [Example 72, {5-[3-Fluoro-5-(2,2,2-trifluoroethoxy)phenyl]-1-(pyridin-3-yl)-1H-pyrazol-3-yl}(1,3-thiazolidin-3-yl)methanone]
- EC50 [1, 4]: 0.038 µM
- EC50 [2, 4]: 0.585 µM
- EC50 [3, 5]: > 3.3 µM

Compound: O=C1CN(C(=O)c2cc(-c3cncc(Cl)c3)n(-c3ccc(F)c(Cl)c3)n2)CCN1 [Example 101, 4-{[1-(3-Chloro-4-fluorophenyl)-5-(5-chloropyridin-3-yl)-1H-pyrazol-3-yl]carbonyl}piperazin-2-one]
- EC50 [1, 4]: 0.016 µM
- EC50 [2, 4]: 0.034 µM
- EC50 [3, 5]: 0.088 µM

Compound: O=C1CN(C(=O)c2cc(-c3cc(Br)cc(OC(F)(F)F)c3)n(-c3ccc(F)nc3)n2)CN1 [Example 39, 1-({5-[3-Bromo-5-(trifluoromethoxy)phenyl]-1-(6-fluoropyridin-3-yl)-1H-pyrazol-3-yl}carbonyl)imidazolidin-4-one]
- EC50 [1, 4]: 0.009 µM
- EC50 [2, 4]: 0.062 µM
- EC50 [3, 5]: 0.007 µM

Compound: O=C(c1cc(-c2cc(Cl)cc(OC(F)(F)F)c2)n(-c2cccnc2)n1)N1CCS(=O)(=O)C1 [Example 79, {5-[3-Chloro-5-(trifluoromethoxy)phenyl]-1-(pyridin-3-yl)-1H-pyrazol-3-yl}(1,1-dioxido-1,3-thiazolidin-3-yl)methanone]
- EC50 [1, 4]: 0.038 µM
- EC50 [2, 4]: 0.244 µM
- EC50 [3, 5]: 0.125 µM

Compound: O=C(c1cc(-c2cc(F)cc(OCC(F)(F)F)c2)n(-c2cccnc2)n1)N1CCS(=O)(=O)C1 [Example 74, (1,1-Dioxido-1,3-thiazolidin-3-yl) {5-[3-fluoro-5-(2,2,2-trifluoroethoxy)phenyl]-1-(pyridin-3-yl)-1H-pyrazol-3-yl}methanone]
- EC50 [1, 4]: 0.004 µM
- EC50 [2, 4]: 0.066 µM
- EC50 [3, 5]: 0.302 µM

Compound: O=C(c1cc(-c2cc(Cl)cc(OC(F)F)c2)n(-c2cccnc2)n1)N1CCSC1 [Example 82, {5-[3-Chloro-5-(difluoromethoxy)phenyl]-1-(pyridin-3-yl)-1H-pyrazol-3-yl}(1,3-thiazolidin-3-yl)methanone]
- EC50 [1, 4]: 0.016 µM
- EC50 [2, 4]: 0.348 µM
- EC50 [3, 5]: 0.307 µM

Compound: O=C1CN(C(=O)c2cc(-c3cc(Br)cc(OC(F)F)c3)n(-c3cccnc3)n2)CN1 [Example 56, 1-({5-[3-Bromo-5-(difluoromethoxy)phenyl]-1-(pyridin-3-yl)-1H-pyrazol-3-yl}carbonyl)imidazolidin-4-one]
- EC50 [1, 4]: 0.002 µM
- EC50 [2, 4]: 0.011 µM
- EC50 [3, 5]: 0.005 µM

Compound: O=C1CN(C(=O)c2cc(-c3cc(Br)cc(OC(F)(F)F)c3)n(-c3ccnc(Cl)c3)n2)CN1 [Example 48, 1-({5-[3-Bromo-5-(trifluoromethoxy)phenyl]-1-(2-chloropyridin-4-yl)-1H-pyrazol-3-yl}carbonyl)imidazolidin-4-one]
- EC50 [1, 4]: 0.01 µM
- EC50 [2, 4]: 0.111 µM
- EC50 [3, 5]: 0.007 µM

Compound: O=C(c1cc(-c2cc(F)cc(Cl)c2)n(-c2cccnc2)n1)N1CCSC1 [Example 5, [5-(3-Chloro-5-fluorophenyl)-1-(pyridin-3-yl)-1H-pyrazol-3-yl](1,3-thiazolidin-3-yl)methanone]
- EC50 [1, 4]: 0.023 µM
- EC50 [2, 4]: 0.533 µM
- EC50 [3, 5]: 1.32 µM

Compound: O=C1CN(C(=O)c2cc(-c3cc(Br)cc(OC(F)(F)F)c3)n(-c3cccnc3)n2)CCN1 [Example 29, 4-({5-[3-Bromo-5-(trifluoromethoxy)phenyl]-1-(pyridin-3-yl)-1H-pyrazol-3-yl}carbonyl)piperazin-2-one]
- EC50 [1, 4]: 0.012 µM
- EC50 [2, 4]: 0.097 µM
- EC50 [3, 5]: 0.032 µM

Source: patent US9296720B2, “Carboxamide-substituted heteroaryl-pyrazoles and the use thereof” (AiCuris GmbH & Co. KG, priority 2011, dated 2016)
